# Results published in patent US9012492B2, “Apocynin-lipoic acid conjugates and uses thereof” (priority 2011, dated 2015).
# Where two headings read alike, the source gives them in different places.
# Experiments:
# N27 neuronal cells = assay: DNA fragmentation ELISA after hydrogen peroxide exposure of N27 neuronal cells; type: cell-based; conditions: pretreatment 100 μM
# Procedure: Specifically, the effects of (Ia) on oxidative stress in N27 neuronal cells, a dopaminergic cell line were studied. […]
# The cells were then lysed, and DNA fragmentation was determined by ELISA assay.
# Sprague-Dawley rats = assay: Blood pressure, heart rate and baroreceptor reflex sensitivity; type: in vivo, rat
# Procedure: Sprague-Dawley rats were used to study the effects of (Ia) on reperfusion injury following stroke in a rodent model. The rats were anesthetized, and injected with (la) (0.01-0.1 mg/kg). After 30 minutes, occlusion of the middle cerebral artery (MCA) was performed.
# All experiments were conducted on male Sprague-Dawley rats (total of 229 rats; 250-350 g; Charles River, Montreal, PQ, Canada). For all animals, food and tap water were available ad libitum. Rats were anesthetized with sodium thiobutabarbital (Inactin; Sigma-Aldrich; St. Louis, Mo.; 100 mg/kg ip), which provided a stable plane of anesthesia for the full duration of the experimental time period. To monitor blood pressure and heart rate, a polyethylene catheter (PE-50; Clay Adams, Parsippany, N.J.) was inserted into the right femoral artery. For intravenous administration of drugs, a second polyethylene catheter (PE-10; Clay Adams) was inserted into the right femoral vein. Arterial blood pressure was measured with a pressure transducer (Gould P23 ID, Cleveland, Ohio) connected to a Gould model 2200S polygraph. Heart rate was determined from the pulse pressure using a Gould tachograph (Biotach). […] An endotracheal tube was inserted to facilitate breathing. Body temperature was monitored and maintained at 37±1° C. using a Physitemp feedback system (Physitemp Instruments, Clifton, N.J.).
# To determine the effect of the compound of Formula (Ia) (0.1 mg/kg; 1 ml/kg; n=4) or vehicle (25% EtOH; 1 ml/kg; n=4) administration on baseline blood pressure and heart rate, continuous recordings of blood pressure and heart rate were taken prior to and following drug or vehicle administration. Further recordings of the parameters were made at 15, 30, 45, 60, 90, and 120 min following drug administration, at which time the experiment was terminated.
# To determine the effect of drug administration on autonomic reflex activation, the baroreceptor reflex was evoked using a bolus intravenous injection of the α-adrenergic receptor agonist, phenylephrine-hydrochloride (Sigma-Aldrich; 0.1 ml; 2.5 μg/ml iv). The ratio of the peak change in the magnitude of the reflex bradycardia to the magnitude of the phenylephrine-induced pressor response [ΔHR (heart rate)/ΔMAP (mean arterial pressure)] was used as a measure of baroreceptor reflex sensitivity (BRS). BRS was tested at 10 min and immediately prior to the compound of Formula (Ia) (0.1 mg/kg; 1 ml/kg; n=3) or vehicle (25% EtOH; 1 ml/kg; n=3) administration. BRS was then tested 15 and 30 min following drug administration (prior to MCAO), and then 5, 10, 20, and 30 min during MCAO (30 min MCAO), as well as 10, 20, 30, 60, 90, 120, 150, 210, 270, and 330 min following suture removal. The experiments were terminated after 5.5 h of reperfusion.
# rat liver microsomes = assay: Metabolic stability using rat liver microsomes; type: in vitro ADME; conditions: RLM
# Excerpt: Table 7 summarizes the experimental conditions used in the studies of the metabolic stability of the compound of Formula (Ia) using rat liver microsomes. Table 8 and FIG. 13 show the results from the studies of the metabolic stability of the compound of Formula (Ia) using rat liver microsomes. [table]
# [1] = tested on: human liver microsomes (HLM); assay: Metabolic stability using human liver microsomes; type: in vitro ADME
# Excerpt: Table 9 summarizes the experimental conditions used in the studies of the metabolic stability of the compound of Formula (Ia) using dog liver microsomes and human liver microsomes.
# [2] = Stability in methanolic solution; type: physicochemical; conditions: stock 1 mg/mL in methanol
# [3] = 0.1 mg/kg iv 30 min prior to I/R, during 30 min MCAO and 5.5 h reperfusion
# [4] = 0.1 mg/kg iv, 2-h continuous recording, no stroke
structure (smiles),measurement,setting,value
COc1cc(C(C)=O)ccc1OC(=O)CCCCC1CCSS1 (stereo not shown) [compound of Formula (Ia)],DNA fragmentation induced by hydrogen peroxide reduced by,N27 neuronal cells,73%
same,DNA cell fragmentation,"N27 neuronal cells; then hydrogen peroxide (1 mM), n = 4",138 ± 20 percentage of control
same,level of BRS depression during MCAO,Sprague-Dawley rats; 0.1 mg/kg iv 30 min prior to I/R,did not alter the level of BRS depression
same,mean arterial pressure compared with pre-MCAO values,Sprague-Dawley rats; [3],no significant differences
same,mean heart rate compared with pre-MCAO values,Sprague-Dawley rats; [3],no significant differences
same,mean baroreflex sensitivity (BRS),"Sprague-Dawley rats; 0.1 mg/kg iv 30 min prior to I/R, within 5 min of the beginning of MCAO, mean±SE",0.23±0.05 bpm/mmHg
same,mean HR vs vehicle,Sprague-Dawley rats; [4],did not significantly alter
same,mean arterial blood pressure vs vehicle,Sprague-Dawley rats; [4],did not significantly alter
same,systemic blood pressure,"Sprague-Dawley rats; Example 3, 0.01-0.1 mg/kg, measured continuously over 6 hour period",no change in systemic blood pressure
same,% Metabolism in 30 minutes,rat liver microsomes; control (without NADPH),0%
same,CLintr (mL/min/g liver),rat liver microsomes; control (without NADPH),>67 mL/min/g liver
same,% Metabolism in 30 minutes,rat liver microsomes; reaction (with NADPH),0%
same,CLintr (mL/min/g liver),rat liver microsomes; reaction (with NADPH),>67 mL/min/g liver
same,% Metabolism in 30 minutes,[1]; HLM control (without NADPH),0%
same,CLintr (mL/min/g liver),[1]; HLM control (without NADPH),>67 mL/min/g liver
same,% Metabolism in 30 minutes,[1]; HLM reaction (with NADPH),0%
same,CLintr (mL/min/g liver),[1]; HLM reaction (with NADPH),>67 mL/min/g liver
same,stability in methanolic solution,[2],stable
same,% Change with time,"Un-treated plasma, 0 h",100.00%
same,% Change with time,"Un-treated plasma, <1 min",0.00%
same,% remaining in spiked plasma sample,"immediate extraction, no stabilizer",~0%
same,% Change with time,"plasma + Formic acid, 0 h",100.00%
same,% Change with time,"plasma + Formic acid, 10 min",2.00%
same,% Change with time,"plasma + Formic acid, <1 min",15.00%
same,% Change with time,"plasma + Sodium fluoride, 0 h",100.00%
same,% Change with time,"plasma + Sodium fluoride, <1 min",2.00%
same,stability in biological matrix,rat/dog blood and plasma,unstable
same,time stabilized in plasma,with combination of DV and FA,up to 4 h
